# ChEMBL document CHEMBL1201862, “PubChem BioAssay data set” (2004)
#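 Following 48 hours of exposure in 96-well plates, responses at five concentrations were used to interpolate endpoints linearly. At the GI50, growth is halved.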 Activity calls are given as the source filed them. No stated cut-off is given here; in the data, active = GI50 up to about 1.1 µM and inactive = higher.
# What was measured:
# Experiment in all cases: NCI-60 cell line screen, 48 h
# [1] = test system: A498
# [2] = test system: HCC 2998
# [3] = test system: HCT-15
# [4] = test system: HL-60
# [5] = test system: HOP-62
# [6] = test system: HOP-92
# [7] = test system: IGROV-1
# [8] = test system: K562
# [9] = test system: NCI-H460
# [10] = test system: OVCAR-3
# [11] = test system: OVCAR-5
# [12] = test system: OVCAR-8
# [13] = test system: RXF 393
# [14] = test system: SF-268
# [15] = test system: SK-MEL-2
# [16] = test system: SR
# [17] = test system: UO-31
# [18] = test system: CAKI-1
# [19] = test system: SN12C
SMILES,GI50 [1],GI50 [2],GI50 [3] [µM],GI50 [4],GI50 [5],GI50 [6],GI50 [7],GI50 [8],GI50 [9],GI50 [10],GI50 [11],GI50 [12],GI50 [13],GI50 [14],GI50 [15],GI50 [16],GI50 [17],GI50 [18],GI50 [19]
C=CCCCN1CCCC(C)C1=S (stereo not given),> 100 µM (inactive),> 100 µM (inactive),> 100,> 100 µM (inactive),> 100 µM (inactive),> 100 µM (inactive),> 100 µM (inactive),> 100 µM (inactive),> 100 µM (inactive),> 100 µM (inactive),> 100 µM (inactive),> 100 µM (inactive),> 100 µM (inactive),> 100 µM (inactive),> 100 µM (inactive),> 100 µM (inactive),> 100 µM (inactive),,
COc1ccc2c3c(n(Cc4ccccc4)c(=O)c2c1)-c1cc(OC)c(OC)cc1C3C (stereo not given),30.5 µM (inactive),36.6 µM (inactive),28.1,> 46.8 µM (inactive),14.8 µM (inactive),14.4 µM (inactive),37.6 µM (inactive),9.89 µM (inactive),4.71 µM (inactive),15 µM (inactive),> 28.4 µM (inactive),19.8 µM (inactive),12.3 µM (inactive),9.91 µM (inactive),17 µM (inactive),5.12 µM (inactive),22.2 µM (inactive),28.1 µM (inactive),14.7 µM (inactive)
Clc1ccc(C2=NOC3C4CCC(C4)C23)cc1 (stereo not given),> 100 µM (inactive),> 100 µM (inactive),> 100,56 µM (inactive),> 100 µM (inactive),> 100 µM (inactive),> 100 µM (inactive),> 100 µM (inactive),> 100 µM (inactive),> 100 µM (inactive),> 100 µM (inactive),> 100 µM (inactive),,> 100 µM (inactive),> 100 µM (inactive),61.2 µM (inactive),> 100 µM (inactive),> 100 µM (inactive),> 100 µM (inactive)
O=C1C2=C(CCCC2)Nc2cccc3ncn1c23,> 100 µM (inactive),> 100 µM (inactive),> 100,> 100 µM (inactive),> 100 µM (inactive),> 100 µM (inactive),,> 100 µM (inactive),> 100 µM (inactive),> 100 µM (inactive),> 100 µM (inactive),> 100 µM (inactive),> 100 µM (inactive),> 100 µM (inactive),> 100 µM (inactive),> 100 µM (inactive),> 100 µM (inactive),,> 100 µM (inactive)
CN(c1ccccc1)c1cc2ccccc2nn1,> 100 µM (inactive),,> 100,30.5 µM (inactive),> 100 µM (inactive),> 100 µM (inactive),> 100 µM (inactive),89.7 µM (inactive),> 100 µM (inactive),53.8 µM (inactive),> 100 µM (inactive),> 100 µM (inactive),> 100 µM (inactive),> 100 µM (inactive),> 100 µM (inactive),> 100 µM (inactive),29.3 µM (inactive),> 100 µM (inactive),> 100 µM (inactive)
CC(=O)OC1=C2CC3(C)OC(=O)CC(C)(C)C3=CC=C2C=C(C(C)C)C1=O (stereo not given),1.57 µM (inactive),0.877 µM (active),0.179,0.28 µM (active),11.4 µM (inactive),0.207 µM (active),0.845 µM (active),0.307 µM (active),1.51 µM (inactive),1.13 µM (inactive),0.912 µM (active),0.288 µM (active),0.184 µM (active),1.05 µM (active),0.459 µM (active),0.278 µM (active),1.74 µM (inactive),1.56 µM (inactive),0.684 µM (active)
CCOC(=O)NC(=O)c1cn(CC(=O)NCC(=O)NCC(=O)N2CCN(CCn3c(C)nc(C(N)=O)c3N)CC2)c(=O)[nH]c1=O,> 100 µM (inactive),> 100 µM (inactive),> 100,> 100 µM (inactive),> 100 µM (inactive),> 100 µM (inactive),> 100 µM (inactive),> 100 µM (inactive),> 100 µM (inactive),,,> 100 µM (inactive),,> 100 µM (inactive),> 100 µM (inactive),> 100 µM (inactive),> 100 µM (inactive),> 100 µM (inactive),> 100 µM (inactive)
O=C(Nc1ccccc1Br)c1cccc([N+](=O)[O-])c1O,2.49 µM (inactive),2.49 µM (inactive),4.6,2.9 µM (inactive),2.32 µM (inactive),1.63 µM (inactive),2.88 µM (inactive),3.13 µM (inactive),4.6 µM (inactive),2.07 µM (inactive),5.13 µM (inactive),4.16 µM (inactive),1.86 µM (inactive),4.47 µM (inactive),6.9 µM (inactive),4.51 µM (inactive),1.89 µM (inactive),3.37 µM (inactive),3.94 µM (inactive)
C=C1c2[nH]c3ccccc3c2CC(C(=O)O)N1C(O)c1ccc(S(=O)(=O)O)cc1 (stereo not given),> 100 µM (inactive),> 100 µM (inactive),,> 100 µM (inactive),> 100 µM (inactive),22.1 µM (inactive),,> 100 µM (inactive),> 100 µM (inactive),> 100 µM (inactive),> 100 µM (inactive),> 100 µM (inactive),> 100 µM (inactive),> 100 µM (inactive),> 100 µM (inactive),> 100 µM (inactive),> 100 µM (inactive),> 100 µM (inactive),> 100 µM (inactive)
Nc1ccc2c(c1)Oc1c(F)c(F)cc3c(=O)c(C(=O)O)cn-2c13,4 µM (inactive),> 100 µM (inactive),46.2,38.9 µM (inactive),31.7 µM (inactive),25.1 µM (inactive),38.6 µM (inactive),59.6 µM (inactive),,22.1 µM (inactive),> 100 µM (inactive),40.2 µM (inactive),43.8 µM (inactive),> 10 µM (inactive),80.2 µM (inactive),34.6 µM (inactive),27.3 µM (inactive),32.1 µM (inactive),39.1 µM (inactive)
Cc1c(Cl)ccc2c1NC(=O)C2(O)C1Cc2ccccc2C1=O (stereo not given),> 100 µM (inactive),32.7 µM (inactive),> 100,21.2 µM (inactive),> 100 µM (inactive),> 100 µM (inactive),> 100 µM (inactive),62.1 µM (inactive),> 100 µM (inactive),> 100 µM (inactive),> 100 µM (inactive),11.2 µM (inactive),57.9 µM (inactive),> 100 µM (inactive),> 100 µM (inactive),27.9 µM (inactive),92.9 µM (inactive),> 100 µM (inactive),> 100 µM (inactive)
Cc1ccccc1NC(=O)CC(=O)n1nc(-c2ccccc2)c(/N=N/c2ccc([N+](=O)[O-])cc2)c1-c1ccccc1,,17.9 µM (inactive),,19.9 µM (inactive),16 µM (inactive),11.4 µM (inactive),28.1 µM (inactive),12.3 µM (inactive),31.5 µM (inactive),15.7 µM (inactive),32 µM (inactive),31.4 µM (inactive),19.1 µM (inactive),21.2 µM (inactive),25.3 µM (inactive),25.1 µM (inactive),7.03 µM (inactive),5.87 µM (inactive),22.1 µM (inactive)
CC1=C(C(=O)NCc2ccccc2)C(c2ccccc2C)C(C(=O)NCc2ccccc2)=C(C)N1,44.3 µM (inactive),28.6 µM (inactive),17.7,21 µM (inactive),29.9 µM (inactive),39 µM (inactive),31.7 µM (inactive),38.5 µM (inactive),19.5 µM (inactive),23.5 µM (inactive),35.9 µM (inactive),17.9 µM (inactive),23.7 µM (inactive),22.8 µM (inactive),18.5 µM (inactive),24.5 µM (inactive),42.8 µM (inactive),50.8 µM (inactive),25.5 µM (inactive)
COC(=O)C(=O)C(CC(=O)Nc1ccc(C)cc1)C(=O)OC (stereo not given),,> 100 µM (inactive),> 100,> 100 µM (inactive),> 100 µM (inactive),> 100 µM (inactive),> 100 µM (inactive),> 100 µM (inactive),> 100 µM (inactive),> 100 µM (inactive),> 100 µM (inactive),> 100 µM (inactive),> 100 µM (inactive),> 100 µM (inactive),> 100 µM (inactive),> 100 µM (inactive),> 100 µM (inactive),> 100 µM (inactive),> 100 µM (inactive)
CC(C)C1COC(c2cccc(C3=N[C@@H](C(C)C)CO3)n2)=N1 (stereo not given in full),> 100 µM (inactive),> 100 µM (inactive),> 100,> 100 µM (inactive),> 100 µM (inactive),> 100 µM (inactive),> 100 µM (inactive),> 100 µM (inactive),> 100 µM (inactive),> 100 µM (inactive),> 100 µM (inactive),,> 100 µM (inactive),> 100 µM (inactive),> 100 µM (inactive),> 100 µM (inactive),98.6 µM (inactive),> 100 µM (inactive),> 100 µM (inactive)
COc1ccc2[nH]c3c(O)nncc3c2c1,> 100 µM (inactive),> 100 µM (inactive),> 100,> 100 µM (inactive),> 100 µM (inactive),35.1 µM (inactive),> 100 µM (inactive),> 100 µM (inactive),> 100 µM (inactive),> 100 µM (inactive),> 100 µM (inactive),> 100 µM (inactive),,> 100 µM (inactive),71.3 µM (inactive),> 100 µM (inactive),> 100 µM (inactive),,
